Results published in ChEMBL document CHEMBL3085639, “Novel camphane-based anti-tuberculosis agents with nanomolar activity” (2013).
In brackets after ≈: the same amount, converted by molar mass.

What follows are molecules tested on Mycobacterium tuberculosis (assay: Antimycobacterial activity against rifampin/isoniazid-resistant Mycobacterium tuberculosis 43 assessed as growth inhibition after 45 days by Canetti proportional method).
Assay type: functional

SMILES | MIC [µM]
CC1(C)[C@@H]2CC[C@@]1(C)[C@H](O)[C@@H]2NC(=O)/C=C/c1ccccc1 | 6.68 (≈ 2 µg/mL)
CC1(C)[C@@H]2CC[C@@]1(C)[C@H](O)[C@@H]2NC(=O)c1ccco1 | 7.59 (≈ 2 µg/mL)
CC(=O)Oc1ccccc1C(=O)N[C@@H]1[C@H]2CC[C@@](C)([C@@H]1O)C2(C)C | > 15.1
CC1(C)[C@@H]2CC[C@@]1(C)[C@H](O)[C@@H]2NC(=O)c1cccnc1 | 18.2 (≈ 5 µg/mL)
CCNC(=O)N[C@@H]1[C@H]2CC[C@@](C)([C@@H]1O)C2(C)C | > 20.8
CC1(C)[C@@H]2CC[C@@]1(C)[C@H](O)[C@@H]2NC(=O)CCc1ccccc1 | 6.63 (≈ 2 µg/mL)
